Assay results published in patent US6878715B1, “Therapeutic compounds for inhibiting interleukin-12 signals and method for using same” (Cell Therapeutics, Inc., priority 1994, dated 2005).

The molecules below were run on GVHD (assay: Graft-versus-host disease (GVHD) model). Conditions: bid, by gavage, first 5 days; assessed over 36 days after adoptive transfer of cells; vs vehicle control; FIG. 3.
Assay type: in vivo
Method: In a GVHD model, an irradiated F1 hybrid recipient population, bred across a parental major H2 mismatch, was infused with maternal cells activated in vitro with conconavalian A (Con A) and IL-12. LSF and the compound of Example 7 (CT12441) were compared with a vehicle control for efficacy. Both compounds were administered on a bid schedule, by gavage, for the first 5 days.

Structure (SMILES)	survival
CNCc1nc2c([nH]1)c(=O)n(CCCC[C@@H](C)O)c(=O)n2C [CT12441, (R)-1-(5-hydroxyhexyl)-3-methyl-8-(N-methyl)aminomethylxanthine]	significant increase of survival
C[C@@H](O)CCCCn1c(=O)c2c(ncn2C)n(C)c1=O [LSF, (R)-1-(5-Hydroxyhexyl)-3,7-dimethylxanthine, reference compound]	significant increase of survival

These molecules were tested on adoptive transfer EAE (assay: Adoptive transfer experimental allergic encephalomyelitis (EAE) model). Conditions: bid, by gavage, first 5 days; vs vehicle only; FIG. 2.
Assay type: in vivo, mice
Method: An adoptive transfer experimental allergic encephalomyelitis (EAE) model was used, in which the splenic T cells from actively immunized mice were cultured for 4 days in antigen-containing (myelin basic protein) medium. The cells were then transferred to naive recipients, which were then evaluated for clinical changes in motor nerve function in the presence or absence of treatment with LSF or the compound of Example 22 (CT11558). Both compounds were administered on a bid schedule, by gavage, for the first 5 days.

Structure (SMILES)	magnitude of observable clinical deficits (motor nerve function)	onset of observable clinical deficits (motor nerve function)
C[C@@H](O)CCCCn1c(=O)c2c(ncn2C)n(C)c1=O [LSF, (R)-1-(5-Hydroxyhexyl)-3,7-dimethylxanthine, reference compound]	decrease in the magnitude	significant delay in the onset
C[C@H](CCCCn1c(=O)c2c(ncn2C)n(C)c1=O)N(C)C [CT11558, (R)-1-(5-N,N-dimethylaminohexyl)-3,7-dimethylxanthine]	decrease in the magnitude	significant delay in the onset

What follows are molecules tested on IL-12 induced IFN-γ secretion (assay: IL-12 induced IFN-γ secretion (interferon gamma induction) assay in splenocyte culture). Conditions: compound added to a culture of splenocytes; FIG. 1.
Assay type: cell-based
Method: The ability of IL-12 to induce generation of Th1 cells is aided by IFN-γ, a cytokine which is known to be induced by IL-12 itself. (R)-3-(N-biotinyl-6-aminohexyl)-1-(5-hydroxyhexyl)-7-methylxanthine (CT12460) and (R)-3-(N-biotinyl-2-aminoethyl)-1-(5-hydroxyhexyl)-7-methylxanthine (CT13410) were tested in an interferon gamma (IFN-γ) induction assay as described in Kobayashi, M., et al., “Identification and Purification of Natural Killer Cell Stimulatory Factor (NKSF), A Cytokine with Multiple Biologic Effects on Human Lymphocytes,” J. Exp. Med.U., 170:827-845 (at 829, 830 and 836) (1989). See also, Wolf, S., et al., “Interluekin 12: A Key Modulator of Immune Function,” Stem Cells, 12:154-168 (1994) and Trinchieri, supra.

Structure (SMILES)	IL-12 induced IFN-γ secretion
C[C@@H](O)CCCCn1c(=O)c2c(ncn2C)n(CCCCCCNC(=O)CCCC[C@@H]2SC[C@@H]3NC(=O)N[C@@H]32)c1=O [CT12460, (R)-3-(6-biotinylamidohexyl)-1-(5-hydroxyhexyl)-7-methylxanthine]	inhibited
C[C@@H](O)CCCCn1c(=O)c2c(ncn2C)n(CCNC(=O)CCCC[C@@H]2SC[C@@H]3NC(=O)N[C@@H]32)c1=O [CT13410, (R)-3-(6-biotinylamidoethyl)-1-(5-hydroxyhexyl)-7-methylxanthine]	inhibited

The molecules below were run on IL-12 induced Th1 differentiation (splenic T cells) (assay: IL-12 dependent in vitro T-helper cell (Th1) differentiation assay, IFN-γ production upon secondary anti-CD3 stimulation). Conditions: read-out: IC50, inhibition of IL-12 induced Th1 differentiation as defined by IFN-γ production.
Assay type: cell-based
Method: This example illustrates the inventive compounds' ability to suppress Th1 differentiation in vitro by blocking IL-12 signalling. Each of compounds A through Y were tested in an IL-12 dependent in vitro T-helper cell differentiation assay as described in LeGross et al., J. Exp. Med., 172:921-929 (1990). Recombinant IL-12 was used to induce Th1 differentiation. Spenic T cells were purified utilizing the antibodies RA3-3A1/6.1 (anti-B220), J11d and MAR18.5 (anti-rat kappa chain) to deplete the B cells via complement mediated toxicity following the procedure set forth in Klaus et al., J. Immunol., 149:1867-1875 (1992). Splenic T cells were stimulated at 5×10^5/ml with insoluble anti-CD3 alone (145-2C11, Pharmingen, San Diego, Calif.), or anti-CD3 and 5 U/ml IL-12, with and without each inventive compound. After seven days, equal numbers of viable cells were restimulated for 24 hours with anti-CD3 without the inventive compounds, and the supernatants were collected and assayed for IFN-γ production. IFN-γ and IL-4 levels were measured by Interest kits from Genzyme specific for IFN-γ and IL-4.
Th1 differentiation was induced by culturing anti-CD3 stimulated T cells in the presence of exogenous IL-12. […] The values in the “IC50 μM” column were determined by measuring the inhibition of IL-121 induced Th1 differentiation as defined by IFN-γ production upon secondary stimulation with anti-CD3 alone. None of the compounds affected the viability or recovery of T cells after one week of culture.

Structure (SMILES)	IC50 [µM]
C[C@@H](O)CCCCn1c(=O)c2[nH]c(=O)[nH]c2n(C)c1=O [CT12452, (R)-1-(5-hydroxyhexyl)-3-methyluric acid]	35
CNc1nc2c([nH]1)c(=O)n(CCCC[C@@H](C)O)c(=O)n2C [CT12447, (R)-1-(5-hydroxyhexyl)-3-methyl-8-methylaminoxanthine]	25

Same assay, conditions: splenic T cells, anti-CD3 and 5 U/ml IL-12, seven days with compound, restimulated 24 hours with anti-CD3 alone, read-out: IC50, inhibition of IL-12 induced Th1 differentiation as defined by IFN-γ production

Structure (SMILES)	IC50 [µM]
CNCc1nc2c([nH]1)c(=O)n(CCCC[C@@H](C)O)c(=O)n2C [CT12441, (R)-1-(5-hydroxyhexyl)-3-methyl-8-(N-methyl)aminomethylxanthine]	19
C[C@@H](O)CCCCn1c(=O)c2[nH]nnc2n(C)c1=O [CT12463, (R)-1-(5-Hydroxyhexyl)-3-methyl-8-azaxanthine]	31
C[C@@H](O)CCCCn1c(=O)c2c(ncn2C)n(CCCCCCNC(=O)CCCC[C@@H]2SC[C@@H]3NC(=O)N[C@@H]32)c1=O [CT12460, (R)-3-(6-biotinylamidohexyl)-1-(5-hydroxyhexyl)-7-methylxanthine]	21.8
C[C@@H](O)CCCCn1c(=O)c2nsnc2n(C)c1=O [CT12461, (R)-3-(5-hydroxyhexyl)-1-methyl-[1,2,5]thiadiazolo[3,4]pyrimidine-2,4-dione]	17
C[C@@H](O)CCCCn1c(=O)c2[nH]c(CN)nc2n(C)c1=O [CT12440, (R)-8-Aminomethyl-1-(5-hydroxyhexyl)-3-methylxanthine]	9
C[C@H](CCCCn1c(=O)c2c(ncn2C)n(C)c1=O)OP(=O)(O)O [CT17557]	9
C[C@@H](O)CCCCn1c(=O)c2c(nnn2C)n(C)c1=O [CT12464, (R)-3,7-dimethyl-1-(5-hydroxyhexyl)-8-azaxanthine]	12
C[C@@H](O)CCCCn1c(=O)c2c(ncn2Cc2ccccc2)n(C)c1=O [CT12404]	28
C[C@@H](O)CCCCn1c(=O)c2nn(C)nc2n(C)c1=O [CT12465, (R)-3,8-Dimethyl-1-(5-hydroxyhexyl)-8-azaxanthine]	15
CC(CCCCn1c(=O)c2c(ncn2C)n(C)c1=O)NO (centres unmarked) [CT7549, 1-(5-(N-Hydroxy)aminohexyl)-3,7-dimethylxanthine]	21
C[C@@H](O)CCCCn1c(=O)c2c([nH]c(=O)n2C)n(C)c1=O [CT11499, (R)-1-(5-Hydroxyhexyl)-3,7-dimethyluric acid]	30
C[C@@H](O)CCCCn1c(=O)n(C)c(=O)c2c1ncn2C [CT11495, (R)-3-(5-Hydroxyhexyl)-1,7-dimethylxanthine]	35
Cc1nc2c(c(=O)n(CCCC[C@@H](C)O)c(=O)n2C)n1Cc1ccccc1 [CT12407, (R)-1-(5-hydroxyhexyl)-7-benzyl-3,8-dimethylxanthine]	30
CNc1nc2c(c(=O)n(CCCC[C@@H](C)O)c(=O)n2C)n1C [CT12481, (R)-3,7-dimethyl-1-(5-hydroxyhexyl)-8-N-methylaminoxanthine]	24.7
C[C@H](O)CCCCn1c(=O)c2c(ncn2Cc2ccccc2)n(C)c1=O [CT22404, (S)-1-(5-Hydroxyhexyl)-7-benzyl-3-methylxanthine]	10
CSc1nc2c([nH]1)c(=O)n(CCCC[C@@H](C)O)c(=O)n2C [CT12490, (R)-1-(5-Hydroxyhexyl)-3-methyl-8-methylsulfanylxanthine]	20
C[C@@H](O)CCCCn1c(=O)c2c(ncn2C)n(Cc2ccco2)c1=O [CT12422, (R)-3-(2-Furylmethyl)-1-(5-hydroxyhexyl)-7-methylxanthine]	19
Cc1cn(C)c2c1c(=O)n(CCCC[C@@H](C)O)c(=O)n2C [CT12458, (R)-3-(5-Hydroxyhexyl)-1,7,9-dimethyl-2,4-pyrrolo[2,3-d]pyrimidinedione]	27
C[C@H](O)CCCCn1c(=O)c2nn(C)nc2n(C)c1=O [CT22465, (S)-3,8-dimethyl-1-(5-hydroxyhexyl)-8-azaxanthine]	14
C[C@H](O)CCCCn1c(=O)c2c(nnn2C)n(C)c1=O [CT22464, (S)-3,7-Dimethyl-1-(5-hydroxyhexyl)-8-azaxanthine]	30
C[C@@H](O)CCCCn1c(=O)c2c(nc(N(C)C)n2C)n(C)c1=O [CT12485, (R)-3,7-Dimethyl-8-N,N-dimethylamino-1-(5-hydroxyhexyl)-xanthine]	10
Cc1c[nH]c2c1c(=O)n(CCCC[C@@H](C)O)c(=O)n2C [CT12459, (R)-1,9-dimethyl-3-(5-hydroxyhexyl)-2,4-pyrrolo[2,3-d]pyrimidinedione]	17
